For this test, the system named is H460 cells. Kind of test: Alamar Blue antiproliferation assay, H460 cell line. Type of test: cell-based, human. The method, then:
To determine the effect of the compounds of the present invention on cell proliferation, the antiproliferative activity of these compounds was tested in a multi-well Alamar Blue based assay (at 2 h and 3 days). Cell growth in the presence and absence of the test compound as tabulated in Table 1 was compared, as measured by a fluorescence plate reader at excitation 550 nm and emission 590 nm (see Biosource International Inc., Tech Application Notes, Use of Alamar Blue in the measurement of Cell Viability and Toxicity, Determining IC50). H460 cells (ATCC HTB-177 ([…]), 4,000 cells/well/200 μl) and LNCap cells (ATCC CRL-1740, 6,000 cells/well/200 μl) were seeded in a 96 well plate in RPMI medium (Invitrogen Corporation, Carlsbad, Calif.). After 24 hours, these plates were divided into 3 groups—Control group, 2 h treatment group and 3 day treatment group.
In the 2 h treatment group, after 2 h the cells were rinsed to remove the test compound and incubated for 3 days, followed by staining with AlamarBlue. The cells in the 3-day treatment group were incubated for 3 days, followed by staining with AlamarBlue. In the Control group, AlamarBlue was added to the plate at (i) day 0 and (ii) day 3 and measured to establish the control reading. In all the groups, the capacity of the cells to proliferate was measured 6 hours after addition of AlamarBlue by a fluorescence plate reader at excitation 550 nm and emission 590 nm.

The mark [1] stands for this setting: Homo sapiens, NCI-H460, 2 h treatment, then 3 days incubation, read-out: GI50 (nM) 2 Hour.
The mark [2] stands for this setting: Homo sapiens, NCI-H460, 2 h treatment, then 3 days incubation, read-out: GI90 (nM) 2 Hour.
The mark [3] stands for this setting: Homo sapiens, NCI-H460, 72 h, 3 day treatment, read-out: GI50 (nM) 3 Days.
[4] abbreviates: Homo sapiens, NCI-H460, 72 h, 3 day treatment, read-out: GI90 (nM) 3 Day.

Like-named read-outs stand apart in the source and are kept apart here. Where only a bound is given, the exact number is not on record here.

On to `COc1ccc2c(C(=O)c3cc(OC)c(OC)c(OC)c3)n[nH]c2c1` [Compound 9], for which the GI50 under setting [1] was above 1000 nM and the GI50 under setting [3] turned out to be 100 nM. Moreover, the IC90 by setting is: under setting [2], above 1000 nM; under setting [4], 316 nM.
As to `COc1ccc2c(/C(=N/N)c3cc(OC)c(OC)c(OC)c3)n[nH]c2c1` [Compound 10], the 50% growth inhibitory concentration (GI50) is above 1000 nM under setting [1] and 398 nM under setting [3]. Moreover, the IC90 by setting is: under setting [2], above 1000 nM; under setting [4], 1000 nM.
Regarding `COc1ccc2c(/C(=N/O)c3cc(OC)c(OC)c(OC)c3)n[nH]c2c1` [Compound 11], the GI50 was above 1000 nM under setting [1] and 631 nM under setting [3]. The IC90 reads like this: under setting [2], above 1000 nM; under setting [4], above 1000 nM.
In the case of `COc1ccc2c(C(=O)c3cc(OC)c(OC)c(OC)c3)nn(C)c2c1` [Compound 12], the GI50 was above 1000 nM under setting [1] and above 1000 nM under setting [3]. The IC90 is, setting by setting: under setting [2], above 1000 nM; under setting [4], above 1000 nM.
In the case of `COc1ccc2c(C(=O)c3cc(OC)c(OC)c(OC)c3)n(C)nc2c1` [Compound 13], the GI50 is, setting by setting: under setting [1], above 1000 nM; under setting [3], above 1000 nM. In addition, the IC90 is, setting by setting: under setting [2], above 1000 nM; under setting [4], above 1000 nM.
Take `COc1ccc2c(C(=O)c3cc(OC)c(OC)c(OC)c3)n(Cc3ccccc3)nc2c1` [Compound 17]: the GI50 is above 1000 nM under setting [1] and above 1000 nM under setting [3]. In addition, the IC90 runs as follows: under setting [2], above 1000 nM; under setting [4], above 1000 nM.
Consider `COc1ccc2c(c1)N=N/C2=C/c1cc(OC)c(OC)c(OC)c1` [Compound 19], for which the GI50 under setting [1] is above 10000 nM and the GI50 under setting [3] is above 1000 nM. In addition, the IC90 was above 1000 nM under setting [2] and above 1000 nM under setting [4].
For the compound `COc1ccc2c(C(=O)c3cc(OC)c(OC)c(OC)c3)nn(C(=O)c3ccccc3)c2c1` [Compound 20], the GI50 is, setting by setting: under setting [1], 630 nM; under setting [3], 100 nM.
On the same counts, the results for `COc1cc(C(=O)c2n[nH]c3c(Cl)c(OC)ccc23)cc(OC)c1OC` [Compound 21] are above 10000 nM and 40 nM.
On the same counts, the results for `COc1cc(C(=O)c2n[nH]c3c(I)c(OC)ccc23)cc(OC)c1OC` [Compound 22] are above 10000 nM and 40 nM.
On the same counts, the results for `COc1ccc2c(C(=O)c3cc(OC)c(OC)c(OC)c3)nn(S(=O)(=O)c3ccc([N+](=O)[O-])cc3)c2c1` [Compound 23] are 630 nM and 100 nM.
Regarding `COc1ccc2c(C(=O)c3cc(OC)c(OC)c(OC)c3)nn(S(=O)(=O)c3ccc(N)cc3)c2c1` [Compound 24], the GI50 is, setting by setting: under setting [1], 10000 nM; under setting [3], 501 nM.
On the same counts, the results for `COc1ccc2c(C(=O)c3cc(OC)c(OC)c(OC)c3)nn(S(=O)(=O)c3cccc4ccccc34)c2c1` [Compound 25] are above 10000 nM and 630 nM.
On the same counts, the results for `COc1ccc2c(C(=O)c3cc(OC)c(OC)c(OC)c3)nn(S(=O)(=O)c3ccc4ccccc4c3)c2c1` [Compound 26] are above 10000 nM and 630 nM.
On the same counts, the results for `COc1ccc2c(C(=O)c3cc(OC)c(OC)c(OC)c3)nn(P(=O)(OCc3ccccc3)OCc3ccccc3)c2c1` [Compound 27] are above 10000 nM and 251 nM.
Take `COc1ccc2c(C(=O)c3cc(OC)c(OC)c(OC)c3)nn(S(=O)(=O)c3ccc(O)cc3)c2c1` [Compound 29]: the GI50 is, setting by setting: under setting [1], above 10000 nM; under setting [3], 630 nM.
With `COc1cc(C(=O)c2n[nH]c3c(S(=O)(=O)c4ccc(OCc5ccccc5)cc4)c(OC)ccc23)cc(OC)c1OC` [Compound 31], the GI50 is above 10000 nM under setting [1] and above 10000 nM under setting [3].
For the compound `COc1ccc2c3n(nc2c1)Cc1c(cc(OC)c(OC)c1OC)C3=O` [Compound 32], the GI50 under setting [1] is above 10000 nM and the GI50 under setting [3] is above 10000 nM.
For `COc1ccc2c(C(=O)c3cc(OC)c(OC)c(OC)c3)nn(S(=O)(=O)Cc3ccc([N+](=O)[O-])cc3)c2c1` [Compound 33], the GI50 by setting is: under setting [1], above 10000 nM; under setting [3], 1000 nM.
Turning to `COc1ccc2c(C(=O)c3cc(OC)c(OC)c(OC)c3)nn(C(=O)Cc3ccc(OCc4ccccc4)cc3)c2c1` [Compound 34], the GI50 reads like this: under setting [1], above 10000 nM; under setting [3], 126 nM.
The corresponding values for `COc1cc(C(=O)c2n[nH]c3c(C#CC(C)(C)O)c(OC)ccc23)cc(OC)c1OC` [Compound 36] are above 10000 nM and 63 nM.
Regarding `COc1cc(C(=O)c2nn(Cc3ncc([N+](=O)[O-])n3C)c3c(Br)c(OC)ccc23)cc(OC)c1OC` [Compound 38], the GI50 is, setting by setting: under setting [1], above 10000 nM; under setting [3], 631 nM.
With `COc1ccc2[nH]nc(C(=O)c3cc(OC)c(OC)c(OC)c3)c2c1` [Compound 42], the GI50 is, setting by setting: under setting [1], above 1000 nM; under setting [3], above 1000 nM. The IC90 is, setting by setting: under setting [2], above 1000 nM; under setting [4], above 1000 nM.
Take `COc1cc(C(=O)c2n[nH]c3ccc(F)cc23)cc(OC)c1OC` [Compound 43]: the concentration for 50% growth inhibition (GI50) runs as follows: under setting [1], above 10000 nM; under setting [3], above 10000 nM. The IC90 was above 1000 nM under setting [2] and above 1000 nM under setting [4].
In the case of `COc1ccc2c(/C(=N/NC(C)=O)c3cc(OC)c(OC)c(OC)c3)n[nH]c2c1` [Compound 44], the 50% growth inhibitory concentration (GI50) was above 5000 nM under setting [1] and 1580 nM under setting [3]. For the same compound, the IC90 runs as follows: under setting [2], above 5000 nM; under setting [4], above 5000 nM.
With `COc1ccc2c(C(=O)c3cc(OC)c(OC)c(OC)c3N)n[nH]c2c1` [Compound 45], under setting [3], the GI50 came out at 158 nM.
`COc1ccc2c(C(=O)c3cc(OC)c(OC)c(OC)c3)nn(S(=O)(=O)c3ccc(C)cc3)c2c1` [Compound 47]: under setting [3], the GI50 was 25 nM.
The same measure, in the same setting: next, `COc1ccc2c(C(=O)c3cc(OC)c(OC)c(OC)c3Br)nn(S(=O)(=O)c3ccc(C)cc3)c2c1` [Compound 48]: 630 nM.
As for `COc1ccc2c(C(=O)c3cc(OC)c(OC)c(OC)c3)nn(P(=O)(OC)OC)c2c1` [Compound 49], the GI50 under setting [3] was found to be 15.8 nM.
Regarding `CCC(=O)n1nc(C(=O)c2cc(OC)c(OC)c(OC)c2)c2ccc(OC)cc21` [Compound 50], the concentration for 50% growth inhibition (GI50) under setting [1] was above 10000 nM and the GI50 under setting [3] is 20 nM.
The corresponding values for `COc1cc(C(=O)c2n[nH]c3c(C#CCNC(=O)C(F)(F)F)c(OC)ccc23)cc(OC)c1OC` [Compound 52] are above 1000 nM and 100 nM.
As for `COc1cc(C(=O)c2n[nH]c3c(C#CCN)c(OC)ccc23)cc(OC)c1OC` [Compound 53], the 50% growth inhibitory concentration (GI50) runs as follows: under setting [1], 630 nM; under setting [3], 158 nM.
On the same counts, the results for `COc1ccc2c(C(=O)c3cc(OC)c(OC)c(OC)c3)nn(CO)c2c1` [Compound 56] are above 10000 nM and 50.1 nM.
`COc1cc(C(=O)c2n[nH]c3c(C(=O)O)c(OC)ccc23)cc(OC)c1OC` [Compound 59]: the GI50 was above 1000 nM under setting [1] and 794 nM under setting [3].
The corresponding values for `COc1cc(C(=O)c2n[nH]c3c(CCCCO)c(OC)ccc23)cc(OC)c1OC` [Compound 61] are above 1000 nM and above 1000 nM.
On the same counts, the results for `COc1ccc2c(C(=O)c3cc(OC)c(OC)c(OC)c3)nn(CC(=O)O)c2c1` [Compound 62] are above 1000 nM and 630 nM.
The corresponding values for `COc1ccc2c(C(=O)c3cc(OC)c(OC)c(OC)c3)nn(CC(N)=O)c2c1` [Compound 63] are above 1000 nM and 630 nM.
As for `COc1ccc2c(C(=O)c3cc(OC)c(OC)c(OC)c3)nn(CCO)c2c1` [Compound 64], the GI50 runs as follows: under setting [1], above 1000 nM; under setting [3], 630 nM.
Take `COc1cc(C(=O)c2n[nH]c3c(CCC(C)(C)O)c(OC)ccc23)cc(OC)c1OC` [Compound 65]: the GI50 is above 1000 nM under setting [1] and above 1000 nM under setting [3].
Take `COc1cc(C(=O)c2n[nH]c3c(C#Cc4cccc(O)c4)c(OC)ccc23)cc(OC)c1OC` [Compound 69]: under setting [3], the GI50 was determined as 1000 nM.
In the case of `COc1cc(C(=O)c2n[nH]c3c(C#C[C@@H](C)O)c(OC)ccc23)cc(OC)c1OC` [Compound 71], the GI50 (3 day treatment, read-out: GI50 (nM) 3 Days) amounted to 12.5 nM.
In the case of `C#Cc1c(OC)ccc2c(C(=O)c3cc(OC)c(OC)c(OC)c3)nn(CC(N)=O)c12` [Compound 73], under setting [3], the GI50 stood at 630 nM.
Still for that read-out and setting: next, `C#Cc1c(OC)ccc2c(C(=O)c3cc(OC)c(OC)c(OC)c3)nn(CC(=O)O)c12` [Compound 74]: above 1000 nM.
`C#Cc1c(OC)ccc2c(C(=O)c3cc(OC)c(OC)c(OC)c3)nn(C(=O)OCc3ccc([N+](=O)[O-])o3)c12` [Compound 75]: the 50% growth inhibitory concentration (GI50) under setting [3] is above 1000 nM.
Same read-out and setting: with `COc1cc(C(=O)c2n[nH]c3c(C#CC=O)c(OC)ccc23)cc(OC)c1OC` [Compound 76] the figure was 79.4 nM; with `COc1cc2[nH]nc(C(=O)c3cc(OC)c(OC)c(OC)c3)c2cc1OC` [Compound 77], above 1000 nM.
As for `C#Cc1c(OC)ccc2c(C(=O)c3cc(OC)c(OC)c(OC)c3)nn([C@@H]3OC(CO)[C@@H](O)[C@H](O)C3O)c12` (stereo partly shown) [Compound 80], the GI50 under setting [3] was above 1000 nM.
Same read-out and setting: next, `COc1ccc2c(C(=O)c3cc(OC)c(OC)c(OC)c3)n(CO)nc2c1` [Compound 81]: above 1000 nM.

Values taken from patent US20090042820A1, “Tubulin Binding Anti Cancer Agents And Prodrugs Thereof” (Threshold Pharmaceuticals, Inc., priority 2004, published 2009).
